Where two headings read alike, the source gives them in different places.
How the values were obtained:
[1] = in PBS buffer, reference value; cited from earlier work
[2] = system: T24 bladder cancer xenografts; settings: 100 μmol/kg (0.1 mmol/kg gadolinium), tail vein injection
Experimental: MRI signal enhancement was assessed by performing in vivo MRI measurements in three BALB/c nude mice bearing T24 bladder cancer xenografts. Three tumor models were developed by subcutaneous injection of T24 bladder cancer cells. […] MR images were acquired before and after tail vein injection of 200 μl of each sample at various time points.
MR images were acquired before and after 200 μL tail vein injection of each subject at various times.

[3] = T1 and T2 relaxivity measurements; format: physicochemical
Experimental: t1 relaxivity of the proposed MR-available PDT agent—NLPor-Gd-L1Rn (n=1 to 3) was measured. […] Without wishing to be bound by theory, this difference in relaxivity could be due to the different coordinative numbers of them: for NLPor-Gd-L1Rn, (n=1 to 3) the coordinative protection for the central Gd^3+ ion is better than that of Gd-DOTA, so the Gd^3+ ion in NLPor-Gd-L1Rn (n=1 to 3) has less chance to exchange with water protons compared to Gd-DOTA. The responsive t1 of NLPor-Gd-L1Rn (n=1-3) have been evaluated with the addition of different concentrations of αvβ3 integrin. […] (FIG. 6). When the αvβ3 integrin (targeting) binding might readily interact with two molecules and affect t1 relaxivity from 2nd or outer coordination spheres. The t1 relaxivity of NLPor-Gd-L1R3 is enhanced from 0.2847 mM^−1s^−1 to 3.225 mM^−1s^−1 with the addition of αvβ3 integrin.
t1 relaxivity of the proposed MR-available PDT agent—M-NLPor-Cyc-L2An (n=1 or 2) was measured. […]
The absorption and emission spectra of Zn-NLPorB2-Cyc-Gd-L2A2 and its precursor without Gd, Zn-NLPorB2-Cyc-L2A2 were measured in aqueous solution (FIGS. 54b and 54c). […] The singlet oxygen quantum yields (ΦΔ) of Zn-NLPorB2-Cyc-Gd-L2A2 and Zn-NLPorB2-Cyc-L2A2 were measured in CHCl3 and calculated by comparing to a reference compound tetraphenylporphyrin, H2TPP, (ΦΔ=0.55 in CHCl3). […]

SMILES | singlet oxygen quantum yield of reference (ΦRB) [1] | post-injection MRI signal enhancement [2] | post-injection MRI signal enhancement ([2]; listed as GdDOTA) | T1 relaxivity ([3]; 1.4T in water with 3% DMSO, 37° C.) [mM⁻¹ s⁻¹] | T1 relaxivity (r1) ([3]; 1.5 T in water (3% DMSO)) [mM⁻¹ s⁻¹]
O=C1OC2(c3cc(I)c(O)c(I)c3Oc3c2cc(I)c(O)c3I)c2c(Cl)c(Cl)c(Cl)c(Cl)c21 [RB, Rose Bengal] | 0.75 |  |  |  | 
O=C([O-])CN1CCN(CC(=O)[O-])CCN(CC(=O)O)CCN(CC(=O)[O-])CC1.[Gd+3] [Gd-DOTA, reference compound] |  | weak post-injection signal enhancement | Weak post injection signal enhancement | 2.92 | 2.92

— patent US11491224B2, “Bladder cancer photodynamic therapeutic agents with off-on magnetic resonance imaging enhancement” (Hong Kong Baptist University, priority 2018, dated 2022)
